According to patent publication US11331314B2, “Amine substituted triazole derivatives and uses thereof” (Bayer Pharma Aktiengesellschaft, priority 2017, dated 2022):

How the values were obtained:
human V2 receptor = biological target: T1, human V2 receptor (Homo sapiens, UniProt P30518); assay: Cellular in vitro assay for determining vasopressin receptor activity, V2 receptor cell line (CRE-luciferase); type: cell-based; conditions: CHO cell line transfected with the human V2 receptor; agonist [Arg8]-vasopressin at EC50 concentration; read-out: IC50 hV2
T1 construct: expressed in transfected cells; host or cells: CHO K1 (ATCC) expressing firefly luciferase under a CRE-responsive promoter

human V1a receptor = human V1a receptor (Homo sapiens, UniProt P37288); assay: Cellular in vitro assay for determining vasopressin receptor activity, V1a receptor cell line (photoprotein luminescence); type: cell-based; conditions: for IC50: CHO cell line transfected with the human V1a receptor, agonist [Arg8]-vasopressin at EC50 concentration, read-out: IC50 hV1a; for ratio IC50 hV2/hV1a: selectivity ratio of the cellular IC50 values
Outline: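 CHO K1 cells stably expressing human V1a receptor with aequorin photoprotein, loaded overnight with coelenterazine. Compounds preincubated 10 min at various concentrations, then challenged with [Arg^8]-vasopressin at EC50 concentration. Calcium-driven luminescence read immediately; IC50 values derived.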

human V1a receptor, sequence (P37288 whole entry): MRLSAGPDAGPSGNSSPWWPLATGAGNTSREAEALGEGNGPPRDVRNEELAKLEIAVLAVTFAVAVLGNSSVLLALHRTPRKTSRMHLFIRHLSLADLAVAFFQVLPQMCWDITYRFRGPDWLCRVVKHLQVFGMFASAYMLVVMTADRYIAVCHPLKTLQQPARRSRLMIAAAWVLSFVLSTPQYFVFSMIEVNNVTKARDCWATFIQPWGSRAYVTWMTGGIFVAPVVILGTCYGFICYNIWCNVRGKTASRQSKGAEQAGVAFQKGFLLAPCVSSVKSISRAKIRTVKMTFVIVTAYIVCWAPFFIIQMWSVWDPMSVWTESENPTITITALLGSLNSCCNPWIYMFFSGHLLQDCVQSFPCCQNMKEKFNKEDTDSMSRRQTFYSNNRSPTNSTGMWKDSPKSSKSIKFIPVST
T1 sequence (P30518 whole entry): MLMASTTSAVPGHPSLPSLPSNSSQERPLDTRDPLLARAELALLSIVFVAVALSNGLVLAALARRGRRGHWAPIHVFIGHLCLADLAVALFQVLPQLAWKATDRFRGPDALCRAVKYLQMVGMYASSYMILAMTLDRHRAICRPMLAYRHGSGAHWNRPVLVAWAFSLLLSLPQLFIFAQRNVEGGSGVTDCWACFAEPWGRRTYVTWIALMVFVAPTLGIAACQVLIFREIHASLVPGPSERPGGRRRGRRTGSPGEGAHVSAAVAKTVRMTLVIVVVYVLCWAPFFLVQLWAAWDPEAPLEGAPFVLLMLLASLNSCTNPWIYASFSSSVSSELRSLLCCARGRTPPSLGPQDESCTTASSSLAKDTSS

Row | IC50 (human V2 receptor) | IC50 (human V1a receptor) | ratio IC50 hV2/hV1a (human V1a receptor) | SMILES
1 | 19.2 nM | 66.5 nM | 0.3 | O=c1n(Cc2nc(N3CCCC3)n(-c3cccc(Cl)c3)n2)nc(-c2ccc(Cl)cc2)n1C[C@H](O)C(F)(F)F [Example 117, 5-(4-Chlorophenyl)-2-{[1-(3-chlorophenyl)-5-(pyrrolidin-1-yl)-1H-1,2,4-triazol-3-yl]methyl}-4-[(2S)-3,3,3-trifluoro-2-hydroxypropyl]-2,4-dihydro-3H-1,2,4-triazol-3-one]
2 | 360 nM | 37 nM | 9.7 | NC(=O)C1CN(c2nc(Cn3nc(-c4ccc(Cl)cc4)n(C[C@H](O)C(F)(F)F)c3=O)nn2CCC(F)(F)F)C1 [Example 113, 1-[3-({3-(4-Chlorophenyl)-5-oxo-4-[(2S)-3,3,3-trifluoro-2-hydroxypropyl]-4,5-dihydro-1H-1,2,4-triazol-1-yl}methyl)-1-(3,3,3-trifluoropropyl)-1H-1,2,4-triazol-5-yl]azetidine-3-carboxamide]
3 | 14.3 nM | 0.56 nM | 25.7 | O=c1n(Cc2nc(N3CCOCC3)n(-c3ccccc3Cl)n2)nc(-c2ccc(Cl)cc2)n1C[C@H](O)C(F)(F)F [Example 83, 5-(4-Chlorophenyl)-2-{[1-(2-chlorophenyl)-5-(morpholin-4-yl)-1H-1,2,4-triazol-3-yl]methyl}-4-[(2S)-3,3,3-trifluoro-2-hydroxypropyl]-2,4-dihydro-3H-1,2,4-triazol-3-one]
4 | 9.25 nM | 0.37 nM | 25.2 | NC(=O)C1CN(c2nc(Cn3nc(-c4ccc(Cl)cc4)n(C[C@H](O)C(F)(F)F)c3=O)nn2-c2ccccc2Cl)CCN1 (mixture of isomers) [Example 33, 4-[1-(2-Chlorophenyl)-3-({3-(4-chlorophenyl)-5-oxo-4-[(2S)-3,3,3-trifluoro-2-hydroxypropyl]-4,5-dihydro-1H-1,2,4-triazol-1-yl}methyl)-1H-1,2,4-triazol-5-yl]piperazine-2-carboxamide]
5 | 45 nM | 0.42 nM | 108.4 | CC1(C)CN(c2nc(Cn3nc(-c4ccc(Cl)cc4)n(C[C@H](O)C(F)(F)F)c3=O)nn2-c2ccccc2Cl)CCN1 [Example 76, 5-(4-Chlorophenyl)-2-{[1-(2-chlorophenyl)-5-(3,3-dimethylpiperazin-1-yl)-1H-1,2,4-triazol-3-yl]methyl}-4-[(2S)-3,3,3-trifluoro-2-hydroxypropyl]-2,4-dihydro-3H-1,2,4-triazol-3-one]
6 | 248 nM | 8.8 nM | 28.1 | O=c1n(Cc2nc(N3CCS(=O)(=O)CC3)n(-c3ccccc3F)n2)nc(-c2ccc(Cl)cc2)n1C[C@H](O)C(F)(F)F [Example 90, 5-(4-Chlorophenyl)-2-{[5-(1,1-dioxidothiomorpholin-4-yl)-1-(2-fluorophenyl)-1H-1,2,4-triazol-3-yl]methyl}-4-[(2S)-3,3,3-trifluoro-2-hydroxypropyl]-2,4-dihydro-3H-1,2,4-triazol-3-one]
7 | 408 nM | 1 nM | 407.5 | O=c1n(Cc2nc(N3CCS(=O)(=O)CC3)n(-c3ncccc3Cl)n2)nc(-c2ccc(Cl)cc2)n1C[C@H](O)C(F)(F)F [Example 96, 5-(4-Chlorophenyl)-2-{[1-(3-chloropyridin-2-yl)-5-(1,1-dioxidothiomorpholin-4-yl)-1H-1,2,4-triazol-3-yl]methyl}-4-[(2S)-3,3,3-trifluoro-2-hydroxypropyl]-2,4-dihydro-3H-1,2,4-triazol-3-one]
8 | 350 nM | 10.2 nM | 34.5 | O=C1CCC(Nc2nc(Cn3nc(-c4ccc(Cl)cc4)n(C[C@H](O)C(F)(F)F)c3=O)nn2CCC(F)(F)F)CN1 (mixture of isomers) [Example 99, 5-{[3-({3-(4-Chlorophenyl)-5-oxo-4-[(2S)-3,3,3-trifluoro-2-hydroxypropyl]-4,5-dihydro-1H-1,2,4-triazol-1-yl}methyl)-1-(3,3,3-trifluoropropyl)-1H-1,2,4-triazol-5-yl]amino}piperidin-2-one]
9 | 84 nM | 10.7 nM | 7.9 | O=c1n(Cc2nc(N3CCNC(C(F)(F)F)C3)n(CCC(F)(F)F)n2)nc(-c2ccc(Cl)cc2)n1C[C@H](O)C(F)(F)F (single isomer, unassigned) [Example 108]
10 | 727 nM | 0.86 nM | 845.9 | CC(C)(N)CNc1nc(Cn2nc(-c3ccc(Cl)cc3)n(C[C@H](O)C(F)(F)F)c2=O)nn1-c1ncccc1Cl [Example 95, 2-({5-[(2-Amino-2-methylpropyl)amino]-1-(3-chloropyridin-2-yl)-1H-1,2,4-triazol-3-yl}methyl)-5-(4-chlorophenyl)-4-[(2S)-3,3,3-trifluoro-2-hydroxypropyl]-2,4-dihydro-3H-1,2,4-triazol-3-one]
11 | 5.47 nM | 0.65 nM | 8.5 | O=C1NCCN1CCNc1nc(Cn2nc(-c3ccc(Cl)cc3)n(C[C@H](O)C(F)(F)F)c2=O)nn1-c1ccccc1Cl [Example 46, 5-(4-Chlorophenyl)-2-{[1-(2-chlorophenyl)-5-{[2-(2-oxoimidazolidin-1-yl)ethyl]amino}-1H-1,2,4-triazol-3-yl]methyl}-4-[(2S)-3,3,3-trifluoro-2-hydroxypropyl]-2,4-dihydro-3H-1,2,4-triazol-3-one]
12 | 1.16 nM | 0.34 nM | 3.5 | NS(=O)(=O)CCNc1nc(Cn2nc(-c3ccc(Cl)cc3)n(C[C@H](O)C(F)(F)F)c2=O)nn1-c1ccccc1Cl [Example 44, 2-{[1-(2-Chlorophenyl)-3-({3-(4-chlorophenyl)-5-oxo-4-[(2S)-3,3,3-trifluoro-2-hydroxypropyl]-4,5-dihydro-1H-1,2,4-triazol-1-yl}methyl)-1H-1,2,4-triazol-5-yl]amino}ethanesulfonamide]
13 | 1.33 nM | 0.44 nM | 3.1 | O=c1n(Cc2nc(N3CCC(F)(F)C3)n(-c3ccccc3Cl)n2)nc(-c2ccc(Cl)cc2)n1C[C@H](O)C(F)(F)F [Example 37, 5-(4-Chlorophenyl)-2-{[1-(2-chlorophenyl)-5-(3,3-difluoropyrrolidin-1-yl)-1H-1,2,4-triazol-3-yl]methyl}-4-[(2S)-3,3,3-trifluoro-2-hydroxypropyl]-2,4-dihydro-3H-1,2,4-triazol-3-one]
14 | 2.7 nM | 0.38 nM | 7.2 | CC1(O)CCN(c2nc(Cn3nc(-c4ccc(Cl)cc4)n(C[C@H](O)C(F)(F)F)c3=O)nn2-c2ccccc2Cl)C1 (single isomer, unassigned) [Example 30]
15 | 6.66 nM | 0.98 nM | 6.8 | O=c1n(Cc2nc(N3CC4(COC4)C3)n(-c3ccccc3Cl)n2)nc(-c2ccc(Cl)cc2)n1C[C@H](O)C(F)(F)F [Example 86, 5-(4-Chlorophenyl)-2-{[1-(2-chlorophenyl)-5-(2-oxa-6-azaspiro[3.3]hept-6-yl)-1H-1,2,4-triazol-3-yl]methyl}-4-[(2S)-3,3,3-trifluoro-2-hydroxypropyl]-2,4-dihydro-3H-1,2,4-triazol-3-one]
16 | 9.5 nM | 1.13 nM | 8.4 | O=c1n(Cc2nc(NCC3CS(=O)(=O)C3)n(-c3ccccc3Cl)n2)nc(-c2ccc(Cl)cc2)n1C[C@H](O)C(F)(F)F [Example 73, 5-(4-Chlorophenyl)-2-{[1-(2-chlorophenyl)-5-{[(1,1-dioxidothietan-3-yl)methyl]amino}-1H-1,2,4-triazol-3-yl]methyl}-4-[(2S)-3,3,3-trifluoro-2-hydroxypropyl]-2,4-dihydro-3H-1,2,4-triazol-3-one]
17 | 810 nM | 114 nM | 7.1 | O=C1CN(c2nc(Cn3nc(-c4ccc(Cl)cc4)n(C[C@H](O)C(F)(F)F)c3=O)nn2CCC(F)(F)F)CCN1 [Example 112, 4-[3-({3-(4-Chlorophenyl)-5-oxo-4-[(2S)-3,3,3-trifluoro-2-hydroxypropyl]-4,5-dihydro-1H-1,2,4-triazol-1-yl}methyl)-1-(3,3,3-trifluoropropyl)-1H-1,2,4-triazol-5-yl]piperazin-2-one]
18 | 8.75 nM | 0.46 nM | 19.0 | O=c1n(Cc2nc(N3CCC(F)(F)CC3)n(-c3ccccc3Cl)n2)nc(-c2ccc(Cl)cc2)n1C[C@H](O)C(F)(F)F [Example 34, 5-(4-Chlorophenyl)-2-{[1-(2-chlorophenyl)-5-(4,4-difluoropiperidin-1-yl)-1H-1,2,4-triazol-3-yl]methyl}-4-[(2S)-3,3,3-trifluoro-2-hydroxypropyl]-2,4-dihydro-3H-1,2,4-triazol-3-one]

Row | SMILES | IC50 (human V2 receptor) | IC50 (human V1a receptor) | ratio IC50 hV2/hV1a (human V1a receptor)
19 | O=C1CCC(CNc2nc(Cn3nc(-c4ccc(Cl)cc4)n(C[C@H](O)C(F)(F)F)c3=O)nn2-c2ccccc2Cl)N1 (single isomer, unassigned) [Example 64] | 4.35 nM | 0.8 nM | 5.5
20 | O=c1n(Cc2nc(NCC3(O)CCC3)n(-c3ccccc3Cl)n2)nc(-c2ccc(Cl)cc2)n1C[C@H](O)C(F)(F)F [Example 52, 5-(4-Chlorophenyl)-2-{[1-(2-chlorophenyl)-5-{[(1-hydroxycyclobutyl)methyl]amino}-1H-1,2,4-triazol-3-yl]methyl}-4-[(2S)-3,3,3-trifluoro-2-hydroxypropyl]-2,4-dihydro-3H-1,2,4-triazol-3-one] | 0.83 nM | 0.65 nM | 1.3
